Key:
MC38 = assay: scratch test of MC38; type: cell-based; details: concentrations such as 5 μM, 10 μM or 20 μM; FIGS. 3-7
Procedure: Different concentrations of PDE4 inhibitors, such as 5 μM, 10 μM, or 20 μM, were administered to verify the inhibitory effect on metastasis in the scratch test of MC38.

Hematologic tumor cells = assay: subcutaneous tumor model, hematologic tumor cells; type: in vivo, C57 mice; details: in combination with anti-PD-L1 antibody; e.g. 4 mg/kg + 2 mg/kg i.p. every 3 days, 6 doses
Procedure: (§1) (1) Tumorigenesis in mice. 6-8 week-old C57 female mice were selected. Hematologic tumor cells were cultured in vitro to logarithmic phase, collected, and resuspended in a PBS buffer solution. The collected cells were subcutaneously injected into the leg of mice with 5×10^5 cells per mouse to establish a subcutaneous tumor model. (2) After tumorigenesis, the mice were divided into four experimental groups including a blank control, a PDE4 inhibitor group, an immune checkpoint inhibitor group, and a PDE4 inhibitor+immune checkpoint inhibitor group. The mice in the PDE4 inhibitor+immune checkpoint inhibitor group were sequentially intraperitoneally injected with e.g. 4 mg/kg of PDE4 inhibitor and e.g. 2 mg/kg of immune checkpoint inhibitor (e.g., an PD-L1 antibody) every 3 days, with 6 doses in total, while the PDE4 inhibitor group and the immune checkpoint inhibitor group were separately injected with the same dose of PDE4 inhibitor and immune checkpoint inhibitor in the same manner, and the blank control was injected with the same dose of normal saline. […] The mice were detected for weight and tumor size and recorded: tumor volume (mm^3)=length (L)×width (W)^2/2, and then subject to Luciferin fluorescence imaging of tumor. […] 10 min after injection, the mice were subject to Luciferin fluorescence imaging using a Small Animal Live Imaging System (model: IVIS Lumina XRMS Series III).

breast tumor cells 4T1 = assay: mouse model of lung metastasis of breast cancer; type: in vivo; details: 4T1 lung metastasis model; FIG. 8
Melanoma cells = assay: subcutaneous tumor model, melanoma cells; type: in vivo, C57 mice; details: e.g. 4 mg/kg + 2 mg/kg i.p. every 3 days, 6 doses
Procedure: (§2) (1) Tumorigenesis in mice. 6-8 week-old C57 female mice were selected. Melanoma cells were cultured in vitro to logarithmic phase, collected, and resuspended in a PBS buffer solution. The collected cells were subcutaneously injected into the leg of mice with 5×10^5 cells per mouse to establish a subcutaneous tumor model. (2) After tumorigenesis, the mice were divided into four experimental groups including a blank control, a PDE4 inhibitor group, an immune checkpoint inhibitor group, and a PDE4 inhibitor+immune checkpoint inhibitor group. […] The mice were detected for weight and tumor size and recorded: tumor volume (mm^3)=length (L)×width (W)^2/2, and then subject to Luciferin fluorescence imaging of tumor. […] 10 min after injection, the mice were subject to Luciferin fluorescence imaging using a Small Animal Live Imaging System (model: IVIS Lumina XRMS Series III). […] The mice were detected for weight and tumor size and recorded: tumor volume (mm^3)=length (L)×width (W)^2/2, and then subject to Luciferin fluorescence imaging of tumor. […] 10 min after injection, the mice were subject to Luciferin fluorescence imaging using a Small Animal Live Imaging System (model: IVIS Lumina XRMS Series III).

MC38 cells [1] = assay: tumor metastasis model, MC38 cells injected into the spleen of mice; type: in vivo, C57 mice; details: 4 mg/kg intraperitoneally every 3 days, 6 doses; FIGS. 1A and 1B
Procedure: In use, DMSO was used as the solvent for Oxaliplatin and Roflumilast. (1) Tumorigenesis in mice. 6-8 week-old C57 female mice were selected. MC38 cells were cultured in vitro to logarithmic phase, collected, and resuspended in a PBS buffer solution. The collected cells were injected into the spleen of mice through surgery with 5×10^5 MC38 cells per mouse to establish a tumor metastasis model. […] The day of the first injection was taken as Day 1. Then, the mice were detected for weight and recorded, and subject to Luciferin fluorescence imaging. That is, each mouse was intraperitoneally injected with 100 μL of 1 mg/mL aqueous solution of potassium D-Luciferin as formulated. 10 min after injection, the mice were subject to Luciferin fluorescence imaging using a Small Animal […] Imaging System (model: IVIS Lumina XRMS Series III).

Lymphoma cells = assay: subcutaneous tumor model, lymphoma cells; type: in vivo, C57 mice; details: in combination with anti-PD-L1 antibody; e.g. 4 mg/kg + 2 mg/kg i.p. every 3 days, 6 doses
Procedure: as §1, with “Lymphoma” for “Hematologic tumor”

Breast cancer cells = assay: subcutaneous tumor model, breast cancer cells; type: in vivo, C57 mice; details: e.g. 4 mg/kg + 2 mg/kg i.p. every 3 days, 6 doses
Procedure: as §2, with “Breast cancer” for “Melanoma”

MC38 cells [2] = assay: subcutaneous tumor model, colon cancer cells such as MC38; type: in vivo, C57 mice; details: e.g. 4 mg/kg + 2 mg/kg i.p. every 3 days, 6 doses
Procedure: (1) Tumorigenesis in mice. 6-8 week-old C57 female mice were selected. Colon cancer cells, such as MC38 cells, were cultured in vitro to logarithmic phase, collected, and resuspended in a PBS buffer solution. The collected cells were subcutaneously injected into the leg of mice with 5×10^5 cells per mice to establish a subcutaneous tumor model.
(2) After tumorigenesis, the mice were divided into four experimental groups including a blank control, a PDE4 inhibitor group, an immune checkpoint inhibitor group, and a PDE4 inhibitor+immune checkpoint inhibitor group. The mice in the PDE4 inhibitor+immune checkpoint inhibitor group were sequentially intraperitoneally injected with, e.g., 4 mg/kg of PDE4 inhibitor and, e.g., 2 mg/kg of immune checkpoint inhibitor (e.g., a PD-L1 antibody) every 3 days, with 6 doses in total, while the PDE4 inhibitor group and the immune checkpoint inhibitor group were separately injected with the same dose of PDE4 inhibitor and the immune checkpoint inhibitor in the same manner, and the blank control was injected with the same dose of normal saline. The day of the first injection was taken as day 1. The mice were detected for the weight and tumor size and recorded: the tumor volume (mm^3)=length (L)×width (W)^2/2, and then subject to Luciferin fluorescence imaging of tumor. That is, each mouse was intraperitoneally injected with 100 μL of 1 mg/mL aqueous solution of D-Luciferin potassium as formulated. 10 min after injection, the mice were subject to Luciferin fluorescence imaging using a Small Animal Liver Imaging System (model: IVIS Lumina XRMS Series III).
(1) Tumorigenesis in mice. 6-8 week-old C57 female mice were selected. […]

[3] = in combination with anti-PD-1 antibody
[4] = in combination with anti-PD-L1 antibody

O=C(Nc1c(Cl)cncc1Cl)c1ccc(OC(F)F)c(OCC2CC2)c1 [Roflumilast]
inhibitory effect on metastasis in the scratch test (MC38): inhibiting metastasis | inhibition of tumor growth (Hematologic tumor cells): Synergistically Inhibiting Growth of Hematologic Tumor | inhibitory effect on tumor metastasis (breast tumor cells 4T1): significant inhibitory effect on tumor metastasis | inhibition of tumor growth (Melanoma cells; [3]): Synergistically Inhibiting Growth of Melanoma | inhibition of tumor growth (Melanoma cells; [4]): Synergistically Inhibiting Growth Of Melanoma | inhibition of tumor metastasis (Luciferin fluorescence imaging) (MC38 cells [1]): Capable of Inhibiting Tumor Metastasis | inhibition of tumor growth (Lymphoma cells): Synergistically Inhibiting Growth of Lymphoma | inhibition of tumor growth (Breast cancer cells; [3]): Synergistically Inhibiting Growth of Breast Cancer | inhibition of tumor growth (Breast cancer cells; [4]): Synergistically Inhibiting Growth of Breast Cancer | inhibition of tumor growth (MC38 cells [2]; in combination with anti-CTLA-4 antibody): Synergistically Inhibiting Growth of Colon Cancer | inhibition of tumor growth (MC38 cells [2]; in combination with anti-LAG-3 antibody): Synergistically Inhibiting Growth of Colon Cancer | inhibition of tumor growth (MC38 cells [2]; [3]): Synergistically Inhibiting Growth of Colon Cancer

OCCN(CCO)c1nc(N2CCCCC2)c2nc(N(CCO)CCO)nc(N3CCCCC3)c2n1 [Dipyridamole]
inhibitory effect on metastasis in the scratch test (MC38): inhibiting metastasis

COc1cccc(Nc2c(C(N)=O)cnc3c(C)cc(S(=O)(=O)c4cccc(C(=O)N(C)C)c4)cc23)c1 [GSK256066]
inhibitory effect on metastasis in the scratch test (MC38): inhibiting the results of metastasis

COc1ccc(C2CNC(=O)C2)cc1OC1CCCC1 (stereo not shown) [Rolipram, 4-(3-cyclopentyloxy-4-methoxyphenyl)pyrrolidin-2-one]
inhibitory effect on metastasis in the scratch test (MC38): inhibiting metastasis

O=C(O)Cc1ccc(Cc2cc(-c3cccc(Cl)c3)nc(C(F)(F)F)c2)cc1 [BPN14770, Benzeneacetic acid, 4-[[2-(3-chlorophenyl)-6-(trifluoromethyl)-4-pyridinyl]methyl]-]
inhibitory effect on metastasis in the scratch test (MC38): inhibiting metastasis

Source: patent US20240316015A1, “COMPOSITION AND METHOD FOR TREATING TUMORS” (NATURAL MEDICINE INSTITUTE OF ZHEJIANG YANGSHENGTANG CO., …, priority 2021, published 2024)
